Experimental data: ChEMBL document CHEMBL5126640, “Sanggenon C Suppresses Tumorigenesis of Gastric Cancer by Blocking ERK-Drp1-Mediated Mitochondrial Fission” (J Nat Prod, 2022)
Active and inactive are the calls of the source. The calls are words filed in the database; no cut-off is given here.

What was measured:
HGC-27 [1] = test: Induction of cell cycle arrest in human HGC-27 cells assessed as decrease in Cyclin D1 level at 0 to 10 uM by Western blot analysis; format: functional, cell-based; conditions: dose 0-10 µM
AGS [2] = test: Induction of apoptosis in human AGS cells assessed as upregulation of Bax level at 0 to 10 uM by Western blot analysis; format: functional, cell-based; conditions: dose 0-10 µM
HGC-27 [3] = test: Induction of apoptosis in human HGC-27 cells assessed as necrotic cells at 8 uM measured after 24 hrs by AnnexinV-FITC/PI staining based flowcytometry method (reference value: 0.2%); format: functional
HGC-27 [4] = test: Induction of cell cycle arrest in human HGC-27 cells assessed as accumulation of cells at G0/G1 phase at 6 uM incubated for 24 hrs propidium iodide staining-based flow cytometric analysis (reference value: 45.21%); format: functional
HGC-27 [5] = test: Inhibition of ERK signalling pathway in human […] cells assessed as downregulation of p-ERK levels at 0 to 10 uM and measured after 24 hrs by western blot analysis; format: cell-based; conditions: dose 0-10 µM
HGC-27 [6] = test: Induction of apoptosis in human HGC-27 cells transfected with pcDNA3.1-Drp1 plasmid to overexpress DRP1 assessed as early apoptotic cells measured after 24 hrs by AnnexinV-FITC/PI staining based flow cytometry method (reference value: 2.1%); format: functional
AGS [7] = test: Induction of apoptosis in human AGS cells assessed as late apoptotic cells at 10 uM measured after 24 hrs by AnnexinV-FITC/PI staining based flowcytometry method (reference value: 3.4%); format: functional
AGS [8] = test: Induction of apoptosis in human AGS cells transfected with pcDNA3.1-Drp1 plasmid to overexpress DRP1 assessed as necrotic cells and measured after 24 hrs by AnnexinV-FITC/PI staining based flow cytometry method (reference value: 0.2 %); format: functional
HGC-27 [9] = test: Induction of apoptosis in human HGC-27 cells assessed as viable cells at 10 uM measured after 24 hrs by AnnexinV-FITC/PI staining based flowcytometry method (reference value: 91.1%); format: functional; conditions: read-out: Activity
HGC-27 [10] = test: Inhibition of mitochondrial fission in human HGC-27 cells assessed as downregulation of p-DRP1 at 0 to 10 uM measured after 24 hrs by Western blot analysis; format: functional, cell-based; conditions: dose 0-10 µM
AGS [11] = test: Inhibition of mitochondrial fission in human AGS cells assessed as reduction in mitochondrial elongated fragments at 0 to 6 uM measured after 24 hrs by mitotracker based confocal microscopy; format: functional, cell-based; conditions: dose 0-6 µM
HGC-27 [12] = test: Induction of apoptosis in human HGC-27 cells assessed as increase in cleaved caspase-3 level at 0 to 10 uM by Western blot analysis; format: functional, cell-based; conditions: dose 0-10 µM
AGS [13] = test: Induction of apoptosis in human AGS cells assessed as viable cells at 8 uM measured after 24 hrs by AnnexinV-FITC/PI staining based flowcytometry method (reference value: 95.2%); format: functional; conditions: read-out: Activity
HGC-27 [14] = test: Induction of apoptosis in human HGC-27 cells assessed as necrotic cells measured after 24 hrs by AnnexinV-FITC/PI staining based flow cytometry method (reference value: 0.1 %); format: functional
HGC-27 [15] = test: Induction of apoptosis in human HGC-27 cells transfected with pcDNA3.1-Drp1 plasmid to overexpress DRP1 assessed as necrotic cells measured after 24 hrs by AnnexinV-FITC/PI staining based flow cytometry method (reference value: 0%); format: functional
HGC-27 [16] = test: Induction of apoptosis in human HGC-27 cells assessed as downregulation of Bcl-2 level at 0 to 10 uM by Western blot analysis; format: functional, cell-based; conditions: dose 0-10 µM
AGS [17] = test: Induction of apoptosis in human AGS cells assessed as early apoptotic cells measured after 24 hrs by AnnexinV-FITC/PI staining based flow cytometry method (reference value: 2%); format: functional
AGS [18] = test: Induction of apoptosis in human AGS cells assessed as necrotic cells measured after 24 hrs by AnnexinV-FITC/PI staining based flow cytometry method (reference value: 0.1%); format: functional
HGC-27 [19] = test: Induction of apoptosis in human HGC-27 cells assessed as viable cells at 8 uM measured after 24 hrs by AnnexinV-FITC/PI staining based flowcytometry method (reference value: 91.1%); format: functional; conditions: read-out: Activity
AGS [20] = test: Induction of apoptosis in human AGS cells transfected with pcDNA3.1-Drp1 plasmid to overexpress DRP1 assessed as late apoptotic cells and measured after 24 hrs by AnnexinV-FITC/PI staining based flow cytometry method (reference value: 2.1 %); format: functional
AGS [21] = test: Inhibition of mitochondrial fission in human AGS cells assessed as reduction in ATP content at 0 to 10 uM measured after 24 hrs by microplate reader assay; format: functional, cell-based; conditions: dose 0-10 µM
AGS [22] = test: Induction of apoptosis in human AGS cells assessed as early apoptotic cells at 10 uM measured after 24 hrs by AnnexinV-FITC/PI staining based flowcytometry method (reference value: 1.2%); format: functional
[23] = Toxicity in nude mouse xenografted with human AGS cells assessed as effect on kidney morphology at 10 to 20 mg/kg, ip administered every other day and monitored every 3 days by Hematoxyin-eosin staining based analysis; format: organism-based; conditions: in vivo, 72 h, dose 10-20 mg/kg, time 3 day
HGC-27 [24] = test: Induction of apoptosis in human HGC-27 cells assessed as necrotic cells at 6 uM measured after 24 hrs by AnnexinV-FITC/PI staining based flowcytometry method (reference value: 0.2%); format: functional
AGS [25] = test: Induction of apoptosis in human AGS cells assessed as downregulation of Bcl-2 level at 0 to 10 uM by Western blot analysis; format: functional, cell-based; conditions: dose 0-10 µM
HGC-27 [26] = test: Induction of apoptosis in human HGC-27 cells assessed as late apoptotic cells at 6 uM measured after 24 hrs by AnnexinV-FITC/PI staining based flowcytometry method (reference value: 5.4%); format: functional
AGS [27] = test: Induction of cell cycle arrest in human AGS cells assessed as accumulation of cells at G0/G1 phase at 8 uM incubated for 24 hrs propidium iodide staining-based flow cytometric analysis (reference value: 46.51%); format: functional
AGS [28] = test: Induction of apoptosis in human AGS cells transfected with pcDNA3.1-Drp1 plasmid to overexpress DRP1 assessed as early apoptotic cells and measured after 24 hrs by AnnexinV-FITC/PI staining based flow cytometry method (reference value: 2.1 %); format: functional
HGC-27 [29] = test: Induction of apoptosis in human HGC-27 cells assessed as early apoptotic cells at 8 uM measured after 24 hrs by AnnexinV-FITC/PI staining based flowcytometry method (reference value: 3.3%); format: functional
HGC-27 [30] = test: Antiproliferative activity against human HGC-27 cells assessed as reduction in cell growth measured after 24 hrs by CCK8 assay; format: functional, cell-based; conditions: HGC-27, 24 h
HGC-27 [31] = test: Induction of apoptosis in human HGC-27 cells assessed as viable cells at 6 uM measured after 24 hrs by AnnexinV-FITC/PI staining based flowcytometry method (reference value: 91.1%); format: functional; conditions: read-out: Activity
HGC-27 [32] = test: Induction of apoptosis in human HGC-27 cells assessed as late apoptotic cells at 8 uM measured after 24 hrs by AnnexinV-FITC/PI staining based flowcytometry method (reference value: 5.4%); format: functional
[33] = Toxicity in nude mouse xenografted with human AGS cells assessed as effect on lung morphology at 10 to 20 mg/kg, ip administered every other day and monitored every 3 days by Hematoxyin-eosin staining based analysis; format: organism-based; conditions: in vivo, 72 h, dose 10-20 mg/kg, time 3 day

In the case of CC(C)=CCC12Oc3cc(O)ccc3C1(O)Oc1cc(O)c([C@H]3C=C(C)C[C@H](c4ccc(O)cc4O)[C@H]3C(=O)c3ccc(O)cc3O)c(O)c1C2=O (stereo partly drawn), the Activity (HGC-27 [1]) is reported as “Active”, the Activity (AGS [2]) is reported as “Active” and the Activity (HGC-27 [3]) is reported as 1.8%. For the same compound, the Activity (HGC-27 [4]) was 61.3%, the inhibition (HGC-27 [5]) was “Active” and the Activity (HGC-27 [6]) was 2.4%. The Activity (AGS [7]) was 15.3%, the Activity (AGS [8]) was 0.1% and the viability at 10 µM (HGC-27 [9]) was 72.4%. The inhibition (HGC-27 [10]) was “Active”, the inhibition (AGS [11]) was “Active” and the Activity (HGC-27 [12]) was “Active”. For the same compound, the viability at 8 µM (AGS [13]) was 89.8%, the Activity (HGC-27 [14]) was 0.4% and the Activity (HGC-27 [15]) was 0.4%. The Activity (HGC-27 [16]) was “Active”, the Activity (AGS [17]) was 3.5% and the Activity (AGS [18]) was 0.1%. The viability at 8 µM (HGC-27 [19]) was 83.1%, the Activity (AGS [20]) was 6.8% and the inhibition (AGS [21]) was “Active”. The Activity (AGS [22]) was 3.2%, the Activity [23] was “Non-Toxic” and the Activity (HGC-27 [24]) was 1.5%. The Activity (AGS [25]) was “Active”, the Activity (HGC-27 [26]) was 10% and the Activity (AGS [27]) was 54.9%. The Activity (AGS [28]) was 2.8%, the Activity (HGC-27 [29]) was 4% and the IC50 (HGC-27 [30]) was 9.13 µM. For the same compound, the viability at 6 µM (HGC-27 [31]) was 84.2%, the Activity (HGC-27 [32]) was 11.1% and the Activity [33] was “Non-Toxic”.
